According to patent EP0396405A2, “Cosmetic formulations employing esterified alkoxylated polyol carriers” (ARCO CHEMICAL TECHNOLOGY INC., priority 1989, dated 1990):

Tested on: Hartley albino guinea pigs
Experiment: Guinea pig maximization test (Magnusson and Kligman method), delayed contact hypersensitivity
Format: in vivo
Conditions: primary challenge
Procedure: The potential of EAP-1 to produce delayed contact hypersensitivity in guinea pigs was evaluated by the Magnusson and Kligman Maximization Test Method.
On day zero, twenty Hartley albino guinea pigs plus ten positive control animals, and ten vehicle control animals each received six intradermal injections, i.e. duplicate injections (0.1 ml;injection) for each of the three test groups: test material (undiluted), formaldehyde (5.0% w/v in distilled water) and acetone, respectively. Each animal also received two intradermal injections of 50% v/v Freund's Complete Adjuvant (FCA) in distilled water and two injections of the respective test or control materials in the FCA/distilled water emulsion.
On day 6, these same groups of animals were exposed topically to a preparation of their respective test (50% w/v in acetone) or control material under ELASTOPLAST@ (a product of Beiersdorf, Inc.) bandage wrappings for approximately 48 hours.
On day 19, all animals were topically challenged at a naive (not previously exposed) skin site using a preparation of their respective test or control material under ELASTOPLAST@ bandage wrappings for approximately 24 hours. Naive control animals were patched identically to and concurrently with the test and positive.
On the day after removal, the sites were depilated. Later that day and again on the next day, the sites were graded for erythema (redness). […]

With `C=O` [positive control, formaldehyde] the sensitization classification (positive control group) was “extreme sensitization” and the “incidence of grade 1 responses or greater” value (positive control group (10/10)) was 100%.
